Measured values published in US12447149B2, “Formulations of vimseltinib” (Deciphera Pharmaceuticals, LLC, priority 2023, dated 2025).

Columns and labels:
Type in all cases: physicochemical
[1] = Particle size distribution (PSD) of crystalline dihydrate form and seeds, DMAC-water crystallization; settings: milled seeds of crystalline dihydrate form used in DMAC-water crystallization
[2] = Particle size analysis by laser diffraction (Malvern Mastersizer 3000, wet dispersion); settings: volume distribution
Description: Particle size analysis of dihydrate vimseltinib drug substance samples was determined by laser diffraction using a Malvern Mastersizer 3000 instrument in a wet dispersion mode.
Prior to analysis, dihydrate drug substance samples were rotated and inverted in the sample container at least 10 times to ensure homogeneity. Between 20 and 25 mg of sample was weighed into a Malvern Glass tube. 20 mL of the Dispersant Solution (0.1% Span 85 in Isoparaffin G) was added and vortexed until a homogeneous suspension was obtained (˜30 s). The sample was then placed in a Vibra-Cell ultrasonic processor. The amplitude was set to the target of 30% (4 Watts) using an external probe (Vibra-Cell) during 90 sec.
After background measurement, the sample dispersion was slowly added to the dispersion unit of the instrument to achieve an obscuration level target of 5%. The sample was stirred at 3250 rpm for at least 1 minute to ensure dispersion and stabilization of the sample. After stabilization, the measurement was started and performed using a Malvern Mastersizer 3000 according to the method conditions provided in Table 17.

[3] = Static storage stability of crystalline dihydrate and anhydrous forms (XRPD, DSC, KF weekly for four weeks); settings: all storage conditions (40° C./75% RH, 25° C./97% RH, 40° C./0% RH, 25° C./0% RH), after 4 weeks
Description: The stability of crystalline dihydrate and anhydrous forms of the compound represented by Formula (I) at varying relative humidity (RH) and temperature was investigated.
For example, the stability of crystalline dihydrate and anhydrous forms of the compound represented by Formula (I), as prepared according to Example 1 and Example 2, respectively, was studied under other conditions by placing aliquots of each form in static storage at conditions of 40° C./75% RH, 25° C./97% RH, 40° C./0% RH and 25° C./0% RH and analyzing the aliquots once weekly for four weeks using XRPD, DSC, and KF.

[4] = Hydration experiment: slurry of crystalline anhydrous form in deionized water, heat-cool cycles; settings: 4-hour heat-cool cycles between 40° C. and room temperature for 72 hours
Description: In a hydration experiment, a slurry of the crystalline anhydrous form of the compound represented by Formula (I) and deionized water was subjected to successive 4-hour heat-cool cycles between 40° C. and room temperature for 72 hours.

[5] = Hydration of crystalline anhydrous form in low water activity solvents (XRPD); settings: Ambient
Description: The hydration of the crystalline anhydrous form was studied using aqueous solvent systems with low water activity of 0.1. Slurries of the crystalline anhydrous form in the respective solvent were agitated for 6 days at room temperature. Aliquots of isolated materials were analyzed after 24, 48, and 144 hours of agitation. Table 12 summarizes the experiment conditions and isolated crystalline forms, as determined by XRPD.

Cc1nc(-c2cnc(NC(C)C)n(C)c2=O)ccc1Oc1ccnc(-c2cnn(C)c2)c1.O.O [Lot 1]
Particle Size d10 ([1]; listed as 1): 2 microns
Particle Size d50 ([1]; listed as 1): 5 microns
Particle Size d90 ([1]; listed as 1): 13 microns
D(10) ([2]; listed as 1): 9 μm
D(50) ([2]; listed as 1): 29 μm
D(90) ([2]; listed as 1): 59 μm

Cc1nc(-c2cnc(NC(C)C)n(C)c2=O)ccc1Oc1ccnc(-c2cnn(C)c2)c1.O.O [Lot 2]
Particle Size d10 ([1]; listed as 2): 2 microns
Particle Size d50 ([1]; listed as 2): 6 microns
Particle Size d90 ([1]; listed as 2): 11 microns
D(10) ([2]; listed as 2): 6 μm
D(50) ([2]; listed as 2): 18 μm
D(90) ([2]; listed as 2): 37 μm

Cc1nc(-c2cnc(NC(C)C)n(C)c2=O)ccc1Oc1ccnc(-c2cnn(C)c2)c1.O.O [Lot 3]
Particle Size d10 ([1]; listed as 3): 3 microns
Particle Size d50 ([1]; listed as 3): 6 microns
Particle Size d90 ([1]; listed as 3): 12 microns
D(10) ([2]; listed as 3): 6 μm
D(50) ([2]; listed as 3): 17 μm
D(90) ([2]; listed as 3): 33 μm

Cc1nc(-c2cnc(NC(C)C)n(C)c2=O)ccc1Oc1ccnc(-c2cnn(C)c2)c1.O.O [Lot 4]
D(10) ([2]; listed as 4): 7 μm
D(50) ([2]; listed as 4): 19 μm
D(90) ([2]; listed as 4): 36 μm

Cc1nc(-c2cnc(NC(C)C)n(C)c2=O)ccc1Oc1ccnc(-c2cnn(C)c2)c1 [crystalline anhydrous form]
stability of the solid form on storage [3]: remained stable
isolated solid form by XRPD [4]: crystalline dihydrate form
Observed Forms ([5]; Acetone/water (99:1), 24 h): Anhydrous
Observed Forms ([5]; Acetone/water (99:1), 144 h): Anhydrous
Observed Forms ([5]; MEK/water (99:1), 24 h): Anhydrous
Observed Forms ([5]; MEK/water (99:1), 144 h): Dihydrate
